Values belong to the compound of their own block, whether it stands above or below them.
Experiments:
BC-3 and BCBL-1 cells [1] = assay: Combination index (Chou and Talalay, calcusyn), MTS viability; assay type: cell-based; conditions: low doses, 12 combinations each, all combination doses tested
Protocol: (§1) Cells from exponentially growing cultures were plated in untreated flat-bottom 96 well plates at a density of 5×10^3 cells/well, treated with an increasing concentration of the drugs and subsequently assessed for cell viability using the MTS reagent (3-4,5-dimethylthiazol-2yl)-5-(3-carboxy-methoxyphenyl)-2-(4-sulfophenyl)-2H-tetrazolium, inner salt) following the manufacturer's instructions (Promega). Percent cell survival was calculated based on the reading of cells grown in the presence of DMSO control. Experiments were performed in triplicate and have been repeated 2-3 times.

BC-3 cells = assay: PEL orthotopic tumor model; assay type: in vivo, NOD.SCID mice; set-up: dose or concentration left out as unconfirmed; conditions: once daily for 28 days, intraperitoneally
Protocol: A total of 2×10^7 BC-3 cells were injected intraperitoneally into female NOD.SCID mice (NCI Frederick, 6 weeks old). 5 days after tumor cells inoculation the mice were randomly divided in to 4 groups (n=7 each). […] (once daily), JQ-1 50 mg/kg b.w. (once daily) and the combination were administered intraperitoneally daily for 28 days. Then the animals were monitored for survival. Body weight gain was measured once in 3 days as a surrogate measure of tumor progression (Qin et al., 2014). The experiments were performed following the guidelines of institutional animal ethics committee.

[2] = test system: IKZF1 (Ikaros), IKZF3 (Aiolos); assay: Immunoblot of IKZF1 and IKZF3 expression; assay type: cell-based; conditions: BC-3 and BCBL-1, MLN4924 pretreatment 1 h then IMiDs 15 h
Protocol: (§2) Cells were lysed in lysis buffer containing 20 mM sodium phosphate (pH 7.4), 150 mM NaCl, 0.1% Triton X-100, 0.2 M PMSF, and 10% glycerol supplement with a protease inhibitor mixture tablet (Roche). Whole cell extracts were resolved by SD-polyacrylamide gel electrophoresis, transferred to nitrocellulose membrane, and probed with the indicated primary antibodies. Bound antibodies were detected with IRdye 680 or 800 (Licor biosciences) and blots were scanned with licor odyssey CLx imaging system (Licor biosciences). Primary antibodies used in these experiments were from the following sources: PARP (9542), NF-κB2 (p100/p52; 4882) from Cell Signaling; IRF4 (6059), IKZF1 (13039), HSP90 (69703), IKKα/β (7607), RELB (226) from Santa Cruz Biotechnology; MYC (1472-1, Epitomics); tubulin (T9026), cereblon (HPA045910) from Sigma; GAPDH (1107018, Ambion), IKZF3 (6255, Imgenex) and BRD4 (a gift from Dr. Peter Howley, Harvard Medical School).

PEL = conditions: treated for 18 months so far (Antar et al., 2014); cited from earlier work
IL-6 = IL-6 ELISA in supernatants of BC-3 cells; assay type: cell-based, Human; conditions: 12, 24 and 48 h
Protocol: IL-6 was measured in supernatants using BD OptEIA™ Human IL-6 ELISA set as per manufacturer's instructions.

[3] = test system: IKKα/β, p100/p52 and RELB; assay: Immunoblot of NF-κB proteins; assay type: cell-based; conditions: BC-3, BCBL-1, JSC-1 and DG-75 cells, increasing doses
Protocol: as §2

BC-3 and BCBL-1 cells [4] = assay: Genome-wide microarray analysis; conditions: 5 μM, 24 h
Protocol: Two technical replicates per cell line per condition (8 samples total) were assayed on the Illumina Human HT12 BeadChip whole genome expression microarray, with coverage of 39809 coding transcripts and 3961 non-coding transcripts. Probe intensities were extracted directly from binary IDAT files using the ‘illuminaio’ package (Smith et al., 2013). Background correction and normalization was then performed using ‘limma’ package (Smyth, 2005). An estimate of the fraction of probes with detectable expression (approximately 47% of the probes present on the array) was extracted by comparing the negative control probe intensities with hybridization probe intensities; probes failing this cutoff were filtered from further analysis. An empirical Bayes linear model including treatment and cell-line specific effects was fitted to the filtered data, again using ‘limma’. […] Hierarchial clustering with Euclidean distance and centroid linkage was performed in R (http://www.R-project.org). A heat map of differences (corrected for cell-line-specific effects) was plotted.

PEL cell lines = assay: Cell viability, MTS assay; assay type: cell-based; conditions: for PEL cell lines sensitive within physiologically achievable doses: 7 PEL cell lines, increasing concentrations; for sensitivity of the 5 PEL cell lines to recombinant IFN: BC-3, BCBL-1, JSC-1, BC-1 and VG-1, 5 days
Protocol: as §1

PEL cells = assay: Real-time qRT-PCR of mRNA expression; assay type: cell-based
Protocol: Real-time quantitative reverse transcript-polymerase chain reaction (qRT-PCR) was performed with SYBR Green using gene-specific PCR primers. Samples were run in triplicate, and PCR was performed by an ABI Step One Plus thermocycler (Applied Biosystems). GAPDH was used as housekeeping gene and qRT-PCR data (Ct values) was analyzed using the 2^−ΔΔCT method as described earlier (Zhao et al., 2007). The qRT-PCR data was presented as fold change in target gene expression±standard error.

cereblon (CRBN) = cereblon (CRBN) (Homo sapiens, UniProt Q96SW2); conditions: 48 h
Protocol: Cells were lysed in lysis buffer containing 20 mM sodium phosphate (pH 7.4), 150 mM NaCl, 0.1% Triton X-100, […], and 10% glycerol supplement with a protease inhibitor mixture tablet (Roche). Whole cell extracts were resolved by SD-polyacrylamide gel electrophoresis, transferred to nitrocellulose membrane, and probed with the indicated primary antibodies. Bound antibodies were detected with IRdye 680 or 800 (Licor biosciences) and blots were scanned with licor odyssey CLx imaging system (Licor biosciences).

[5] = test system: panel of hematological cancer cell lines; assay: Cell viability, MTS assay, panel of hematological cancer cell lines; assay type: cell-based; conditions: 5 days, increasing concentrations
Protocol: as §1

BJAB cells = assay: Cell viability, MTS assay; assay type: cell-based; conditions: 5 days
Protocol: as §1

[6] = BC-3, BCBL-1 and JSC-1, 5 μM, 24 h

Chain of cereblon (CRBN) (Q96SW2 whole entry): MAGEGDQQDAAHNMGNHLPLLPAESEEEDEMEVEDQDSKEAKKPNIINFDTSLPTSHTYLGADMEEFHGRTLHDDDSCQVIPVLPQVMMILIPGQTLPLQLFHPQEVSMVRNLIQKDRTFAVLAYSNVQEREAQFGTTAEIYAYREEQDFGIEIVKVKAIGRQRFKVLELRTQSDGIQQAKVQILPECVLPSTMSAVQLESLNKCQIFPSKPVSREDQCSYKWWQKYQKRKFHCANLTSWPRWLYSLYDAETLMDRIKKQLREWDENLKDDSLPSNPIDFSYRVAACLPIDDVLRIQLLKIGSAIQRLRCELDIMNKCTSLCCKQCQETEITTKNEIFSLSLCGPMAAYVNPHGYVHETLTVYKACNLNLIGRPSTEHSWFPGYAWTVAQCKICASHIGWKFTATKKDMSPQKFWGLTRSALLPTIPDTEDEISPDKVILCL

Compound: COc1cc2c(cc1-c1c(C)noc1C)ncc1[nH]c(=O)n([C@H](C)c3ccccn3)c12 [IBET151]
synergy of lenalidomide with BRD4 inhibitor (combination index) (BC-3 and BCBL-1 cells [1]): highly synergistic

Compound: Cc1sc2c(c1C)C(c1ccc(Cl)cc1)=N[C@@H](CC(=O)OC(C)(C)C)c1nnc(C)n1-2 [JQ-1]
synergy of lenalidomide with BRD4 inhibitor (combination index) (BC-3 and BCBL-1 cells [1]): highly synergistic
median survival (BC-3 cells): 42 days

Compound: NS(=O)(=O)OC[C@@H]1C[C@@H](n2ccc3c(N[C@H]4CCc5ccccc54)ncnc32)C[C@@H]1O [MLN4924]
effect on downregulation of IKZF1 by IMiDs [2]: completely blocked

Compound: COc1ccccc1S(=O)(=O)Nc1ccc2c(c1)CN(C)C(=O)N2 [PFI-1]
synergy of lenalidomide with BRD4 inhibitor (combination index) (BC-3 and BCBL-1 cells [1]): highly synergistic

Compound: Nc1cccc2c1CN(C1CCC(=O)NC1=O)C2=O (stereo not shown) [lenalidomide]
outcome of elderly HIV-negative, KSHV-positive PEL patient (PEL): without any symptoms or evidence of disease progression
IL-6 secretion by BC-3 cells (IL-6): did not have any significant effect
expression of IKKα/β, p100/p52 and RELB proteins [3]: did not have any significant effect
downregulated genes (BC-3 and BCBL-1 cells [4]): 390 genes
upregulated genes (BC-3 and BCBL-1 cells [4]): 602 genes
genes whose expression changed significantly (pFDR<0.05) (BC-3 and BCBL-1 cells [4]; both cell lines): 992 genes
median survival (BC-3 cells): 35 days
PEL cell lines sensitive within physiologically achievable doses (PEL cell lines; 5 days): 5/7
mRNA levels of IKZF1 (PEL cells; [6]): moderately up-regulated
mRNA levels of IRF4, MYC and its target TERT (PEL cells; [6]): down-regulated mildly, and moderately
transcript levels of IFNs and interferon specific genes (ISGs) (PEL cells; BCBL-1 cells, 5 μM, 24 hours): upregulated

CRBN level in BCBL-1 cells (cereblon (CRBN)): no change
level of cereblon in BC-3 cells (cereblon (CRBN)): slight decrease
Compound: Nc1cccc2c1C(=O)N(C1CCC(=O)NC1=O)C2=O (stereo not shown) [pomalidomide]
PEL cell lines sensitive within physiologically achievable doses (PEL cell lines; 5 days): 6/7

Compound: O=C1CCC(N2C(=O)c3ccccc3C2=O)C(=O)N1 (stereo not shown) [thalidomide]
effect on the growth of the cell lines [5]: did not have any major effect

Compound: IFN-α
sensitivity of BC-3, BCBL-1 and JSC-1 to recombinant IFN (PEL cell lines; 5 days): highly sensitive
sensitivity of the 5 PEL cell lines to recombinant IFN (PEL cell lines): sensitive
effect of recombinant IFN on BJAB (BJAB cells): very little effect

Compound: IFN-γ: recombinant interferon γ
sensitivity of the 5 PEL cell lines to recombinant IFN (PEL cell lines): sensitive
effect of recombinant IFN on BJAB (BJAB cells): without any significant effect

Source: patent US9931332B2, “Compositions and methods for treating primary effusion lymphoma” (University of Southern California, priority 2014, dated 2018)
